Source: patent publication US20040186082A1, “Enhanced phototherapy for the treatment of cancer and autoimmune disease” (priority 2003, published 2004)

Test system: psoriatic lesion on the leg
Assay: Treatment of a psoriatic lesion with topical ointment and UVB irradiation (single patient)
Assay type: in vivo
Conditions: VES 20 mg/gram ointment applied 1 day after provitamin D + UVB (3 MED); within 12 hours
Protocol: Treatment of psoriasis with UVB irradiation. A patient with a ½ inch round psoriatic lesion on the leg was treated with provitamin D (35 mg/gram ointment) and irradiated with UVB (3 MED). […] The formally lesional tissue looked like normal healthy tissue.

Cc1c(C)c2c(c(C)c1OC(=O)CCC(=O)O)CC[C@@](C)(CCC[C@H](C)CCC[C@H](C)CCCC(C)C)O2 [Vitamin E succinate]
appearance of the treated tissue (induration, redness): the tissue was not indurated and the redness disappeared
